Laboratory results taken from patent US20060234955A1, “Cardiac glycosides to treat cystic fibrosis and other il-8 dependent disorders” (priority 2002, published 2006).

Tests used:
[1] = system: IL-8 from CFTE cells; assay: Hypersecretion of IL-8 from CFTE cells; conditions: qualitative
[2] = system: NFκB; conditions: 1 μM concentration; variety of cultured cancer cells; cited from earlier work
[3] = Solubility in ethanol
[4] = system: cat; conditions: intravenous administration, Merck Index; cited from earlier work
[5] = system: cat; assay: LD50, intravenous administration to the cat (Merck Index)

CCCn1c(=O)c2[nH]c(C3CCCC3)nc2n(CCC)c1=O [CPX, 1,3-Dipropyl-8-Cyclopentyl xanthine]
hypersecretion of IL-8 from CFTE cells [1]: suppressed

CO[C@H]1C[C@H](O[C@H]2CC[C@@]3(C)[C@H](CC[C@@H]4[C@@H]3CC[C@]3(C)[C@@H](C5=CC(=O)OC5)[C@@H](OC(C)=O)C[C@]43O)C2)O[C@@H](C)[C@@H]1O [Compound I]
TNFα-dependent activation of NFκB [2]: suppresses | solubility [3]: soluble in ethanol | LD50 [4]: 0.3 mg/kg | LD-50-defined toxicity (concentration) ([5]; as restated): ≥ 0.6 µM | concentration corresponding to LD50 ([5]; assuming body weight is all water and uniform distribution): 600 nM
